According to the supplement of paper PMC10307832:

Columns and labels:
Assay in all cases: relative viability (nuclei count vs DMSO), 5 days (fraction); higher = more cells survive
LU99A = system: LU99A
Summary of the method: (§1)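 After 5 days of treatment, lung cancer cells in 1536-well plates were fixed and stained in a single step (final 0.05% Triton X-100, 1% formaldehyde, 1 ug/ml Hoechst) and their nuclei counted on 4× images. Treatment had been applied by pin tool the day after seeding as one drug alone or as a fixed anchor-drug dose with five library-drug doses (not always all listed) in √10 steps. Relative viability is the nuclei count of treated wells divided by that of vehicle wells, and values are medians of duplicate plates.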

NCI-H2170 = system: NCI-H2170
Summary of the method: as §1

NCI-H650 = system: NCI-H650
Summary of the method: as §1

201T = system: 201T
Summary of the method: as §1

NCI-H1437 = system: NCI-H1437
Summary of the method: as §1

NCI-H647 = system: NCI-H647
Summary of the method: as §1

PC-3 [JPC-3] = system: PC-3 [JPC-3]
Summary of the method: as §1

NCI-H2085 = system: NCI-H2085
Summary of the method: as §1

EPLC-272H = system: EPLC-272H
Summary of the method: as §1

H3255 = system: H3255
Summary of the method: as §1

HCC-44 = system: HCC-44
Summary of the method: as §1

NCI-H1666 = system: NCI-H1666
Summary of the method: as §1

EKVX = system: EKVX
Summary of the method: as §1

NCI-H1975 = system: NCI-H1975
Summary of the method: as §1

NCI-H2342 = system: NCI-H2342
Summary of the method: as §1

LOU-NH91 = system: LOU-NH91
Summary of the method: as §1

BEN = system: BEN
Summary of the method: as §1

HCC-827 = system: HCC-827
Summary of the method: as §1

NCI-H2087 = system: NCI-H2087
Summary of the method: as §1

LCLC-97TM1 = system: LCLC-97TM1
Summary of the method: as §1

`CCN(CC)CCCCNc1ncc2cc(-c3cc(OC)cc(OC)c3)c(NC(=O)NC(C)(C)C)nc2n1` + NC(=O)Nc1cc(-c2cccc(F)c2)sc1C(=O)N[C@H]1CCCNC1 [AZD7762] (partner 0.2 µM) showed a relative viability (LU99A; first compound 0.01 µM) of 0.325, a relative viability (LU99A; first compound 0.03162 µM) of 0.486 and a relative viability (LU99A; first compound 0.1 µM) of 0.323. For the same molecule, the relative viability (LU99A; first compound 0.3162 µM) was 0.35, the relative viability (LU99A; first compound 1 µM) was 0.289 and the relative viability (NCI-H2170; first compound 0.01 µM) was 0.865. It also gave a relative viability (NCI-H2170; first compound 0.03162 µM) of 1.01, a relative viability (NCI-H2170; first compound 0.1 µM) of 1 and a relative viability (NCI-H2170; first compound 0.3162 µM) of 0.953. It also gave a relative viability (NCI-H2170; first compound 1 µM) of 0.869, a relative viability (NCI-H650; first compound 0.01 µM) of 0.909 and a relative viability (NCI-H650; first compound 0.03162 µM) of 0.944. It also gave a relative viability (NCI-H650; first compound 0.1 µM) of 0.97, a relative viability (NCI-H650; first compound 0.3162 µM) of 1.22 and a relative viability (NCI-H650; first compound 1 µM) of 0.994. It also gave a relative viability (201T; first compound 0.01 µM) of 0.747, a relative viability (201T; first compound 0.03162 µM) of 0.617 and a relative viability (201T; first compound 0.1 µM) of 0.68. The relative viability (201T; first compound 0.3162 µM) was 0.685, the relative viability (201T; first compound 1 µM) was 0.758 and the relative viability (NCI-H1437; first compound 0.01 µM) was 1.2. The relative viability (NCI-H1437; first compound 0.03162 µM) was 1.07, the relative viability (NCI-H1437; first compound 0.1 µM) was 1.17 and the relative viability (NCI-H1437; first compound 0.3162 µM) was 1.17. The relative viability (NCI-H1437; first compound 1 µM) was 1.04, the relative viability (NCI-H647; first compound 0.01 µM) was 0.272 and the relative viability (NCI-H647; first compound 0.03162 µM) was 0.612. The relative viability (NCI-H647; first compound 0.1 µM) was 0.495, the relative viability (NCI-H647; first compound 0.3162 µM) was 0.476 and the relative viability (NCI-H647; first compound 1 µM) was 0.247. For the same molecule, the relative viability (PC-3 [JPC-3]; first compound 0.03162 µM) was 0.822, the relative viability (PC-3 [JPC-3]; first compound 0.1 µM) was 0.756 and the relative viability (PC-3 [JPC-3]; first compound 0.3162 µM) was 1.03. It also gave a relative viability (PC-3 [JPC-3]; first compound 1 µM) of 0.639, a relative viability (NCI-H2085; first compound 0.01 µM) of 0.991 and a relative viability (NCI-H2085; first compound 0.03162 µM) of 1.05. For the same molecule, the relative viability (NCI-H2085; first compound 0.1 µM) was 1.05, the relative viability (NCI-H2085; first compound 0.3162 µM) was 1.04 and the relative viability (NCI-H2085; first compound 1 µM) was 0.912. For the same molecule, the relative viability (EPLC-272H; first compound 0.01 µM) was 0.199, the relative viability (EPLC-272H; first compound 0.1 µM) was 0.36 and the relative viability (EPLC-272H; first compound 0.3162 µM) was 0.188. The relative viability (EPLC-272H; first compound 1 µM) was 0.198, the relative viability (H3255; first compound 0.01 µM) was 0.84 and the relative viability (H3255; first compound 0.03162 µM) was 0.909. For the same molecule, the relative viability (H3255; first compound 0.1 µM) was 0.911, the relative viability (H3255; first compound 0.3162 µM) was 1.11 and the relative viability (H3255; first compound 1 µM) was 0.855. It also gave a relative viability (HCC-44; first compound 0.01 µM) of 1, a relative viability (HCC-44; first compound 0.03162 µM) of 1.02 and a relative viability (HCC-44; first compound 0.1 µM) of 1.02. It also gave a relative viability (HCC-44; first compound 0.3162 µM) of 1.02, a relative viability (HCC-44; first compound 1 µM) of 1.12 and a relative viability (NCI-H1666; first compound 0.01 µM) of 0.836. For the same molecule, the relative viability (NCI-H1666; first compound 0.03162 µM) was 0.848, the relative viability (NCI-H1666; first compound 0.1 µM) was 0.889 and the relative viability (NCI-H1666; first compound 0.3162 µM) was 1.12. It also gave a relative viability (NCI-H1666; first compound 1 µM) of 0.727, a relative viability (EKVX; first compound 0.03162 µM) of 0.585 and a relative viability (EKVX; first compound 0.1 µM) of 0.643. It also gave a relative viability (EKVX; first compound 0.3162 µM) of 0.723, a relative viability (EKVX; first compound 1 µM) of 0.709 and a relative viability (NCI-H1975; first compound 0.01 µM) of 0.684. The relative viability (NCI-H1975; first compound 0.03162 µM) was 0.676, the relative viability (NCI-H1975; first compound 0.1 µM) was 0.776 and the relative viability (NCI-H1975; first compound 0.3162 µM) was 0.818. It also gave a relative viability (NCI-H1975; first compound 1 µM) of 0.601, a relative viability (NCI-H2342; first compound 0.01 µM) of 0.44 and a relative viability (NCI-H2342; first compound 0.03162 µM) of 0.511. The relative viability (NCI-H2342; first compound 0.1 µM) was 0.482, the relative viability (NCI-H2342; first compound 0.3162 µM) was 0.558 and the relative viability (NCI-H2342; first compound 1 µM) was 0.485. It also gave a relative viability (LOU-NH91; first compound 0.01 µM) of 0.783, a relative viability (LOU-NH91; first compound 0.03162 µM) of 0.768 and a relative viability (LOU-NH91; first compound 0.1 µM) of 0.828. For the same molecule, the relative viability (LOU-NH91; first compound 0.3162 µM) was 0.845, the relative viability (LOU-NH91; first compound 1 µM) was 0.794 and the relative viability (BEN; first compound 0.01 µM) was 0.669. The relative viability (BEN; first compound 0.03162 µM) was 0.61, the relative viability (BEN; first compound 0.1 µM) was 0.703 and the relative viability (BEN; first compound 0.3162 µM) was 0.757. It also gave a relative viability (BEN; first compound 1 µM) of 0.676, a relative viability (HCC-827; first compound 0.01 µM) of 0.222 and a relative viability (HCC-827; first compound 0.03162 µM) of 0.249. For the same molecule, the relative viability (HCC-827; first compound 0.1 µM) was 0.217, the relative viability (HCC-827; first compound 0.3162 µM) was 0.236 and the relative viability (HCC-827; first compound 1 µM) was 0.196. The relative viability (NCI-H2087; first compound 0.01 µM) was 1.21, the relative viability (NCI-H2087; first compound 0.03162 µM) was 1.31 and the relative viability (NCI-H2087; first compound 0.1 µM) was 1.34. For the same molecule, the relative viability (NCI-H2087; first compound 0.3162 µM) was 1.29, the relative viability (NCI-H2087; first compound 1 µM) was 1.18 and the relative viability (LCLC-97TM1; first compound 0.03162 µM) was 0.384. For the same molecule, the relative viability (LCLC-97TM1; first compound 0.1 µM) was 0.275, the relative viability (LCLC-97TM1; first compound 0.3162 µM) was 0.234 and the relative viability (LCLC-97TM1; first compound 1 µM) was 0.227.
